Experimental data as given in publication PMC8296573, “Synthesis and Biological Evaluation of Fingolimod Derivatives as Antibacterial Agents” (ACS Omega, 2021).
Values after ≈ are worked out from the molar mass of the structure shown. Read-outs that look alike come from different tables or passages of the source.

What was measured:
[1] = system: S. aureus ATCC 25923; assay: Antibacterial activity, pre-exposure (planktonic cells and biofilm formation); format: cell-based, Staphylococcus aureus; settings: for MIC / inhibition at 5 µM / inhibition at 10 µM / inhibition at 15 µM / inhibition at 25 µM: Staphylococcus aureus, ATCC25923; for inhibition at 5 µM / inhibition at 10 µM / inhibition at 15 µM / inhibition at 25 µM / Average inhibition %, biofilms viability / Average inhibition %, planktonic cells viability: pre-exposure, ± SD
Outline: (§1)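 For planktonic resazurin, 20 μM final was used: 3–10 min at RT for S. aureus and A. baumannii, 20 min at 37 °C for P. aeruginosa. Cultures had been co-incubated with compound for 18 h at 37 °C, 220 rpm. Biofilms were then assessed by resazurin and crystal violet.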

[2] = system: P. aeruginosa ATCC 9027; assay: Antibacterial activity, pre-exposure; format: cell-based, Pseudomonas aeruginosa; settings: for Average inhibition %, biofilms viability / Average inhibition %, planktonic cells viability / inhibition at 50 µM / inhibition at 100 µM / inhibition at 150 µM / inhibition at 200 µM: P. aeruginosa ATCC 9027, pre-exposure, ± SD; for MIC / inhibition at 50 µM / inhibition at 100 µM / inhibition at 150 µM / inhibition at 200 µM: Pseudomonas aeruginosa; for inhibition at 50 µM / inhibition at 100 µM / inhibition at 150 µM / inhibition at 200 µM: ATCC9027
Outline: as §1

[3] = system: A. baumannii NCTC 13423; assay: Antibacterial activity, pre-exposure; format: cell-based, Acinetobacter baumannii; settings: for Average inhibition %, biofilms viability / Average inhibition %, planktonic cells viability / inhibition at 10 µM / inhibition at 15 µM / inhibition at 25 µM / inhibition at 50 µM: A. baumannii NCTC 13423, pre-exposure, ± SD; for inhibition at 10 µM / inhibition at 15 µM / inhibition at 25 µM / inhibition at 50 µM / MIC: Acinetobacter baumannii, NCTC13423
Outline: as §1

[4] = system: S. aureus ATCC 25923; assay: Antibacterial activity, post-exposure on preformed 18-h-old biofilms; format: cell-based, Staphylococcus aureus; settings: ± SD; for inhibition at 25 µM / inhibition at 50 µM / inhibition at 100 µM / inhibition at 200 µM: Staphylococcus aureus; for inhibition at 25 µM: ATCC25923, 25 µM; for inhibition at 50 µM: ATCC25923, 50 µM; for inhibition at 100 µM: ATCC25923, 100 µM; for inhibition at 200 µM: ATCC25923, 200 µM
Outline: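 Compounds were applied to preformed 18-h biofilms after medium change and left 24 h. Read-outs: planktonic OD plus resazurin fluorescence (20 μM), biofilm metabolic activity by resazurin 30 min at 37 °C, then biomass by crystal violet absorbance at 595 nm after ethanol fixation.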

[5] = 10 µM, read-out: Average inhibition %, biofilms biomass
[6] = 10 µM, read-out: Average inhibition %, planktonic cells turbidity
[7] = 15 µM, read-out: Average inhibition %, biofilms biomass
[8] = 15 µM, read-out: Average inhibition %, planktonic cells turbidity
[9] = 25 µM, read-out: Average inhibition %, biofilms biomass
[10] = 25 µM, read-out: Average inhibition %, planktonic cells turbidity
[11] = 50 µM, read-out: Average inhibition %, biofilms biomass
[12] = 50 µM, read-out: Average inhibition %, planktonic cells turbidity
[13] = read-out: Average inhibition %, biofilms biomass
[14] = read-out: Average inhibition %, planktonic cells turbidity

MIC ([1]; lowest concentration with no visible growth (>90% inhibition of turbidity and viability of planktonic cells), 18 h, read-out: MIC S. aureus ATCC 25923): 15 to 25 µM (≈ 4.85 to 8.09 µg/mL)
MIC ([1]; read-out: MIC (S. aureus)): 15 to 25 µM (≈ 4.85 to 8.09 µg/mL)
MIC ([2]; ATCC9027, pre-exposure, Inactive = no activity up to 200 μM, > = some inhibition but no MIC reached, read-out: MIC P. aeruginosa ATCC 9027): > 200 µM
MIC ([2]; ATCC9027, supplementary molecular formula strings sheet, read-out: MIC (P. aeruginosa)): > 200 µM
MIC ([3]; pre-exposure, Inactive = no activity up to 50 μM, > = some inhibition but no MIC reached, read-out: MIC A. baumannii NCTC 13423): > 50 µM
MIC ([3]; supplementary molecular formula strings sheet, read-out: MIC (A. baumannii)): > 50 µM
Structure (SMILES): CCCCCCCCOc1ccc(CCC(N)(CO)CO)cc1 [Compound 48, 2-Amino-2-[4-(octyloxy)phenethyl]propane-1,3-diol]
inhibition at 5 µM ([1]; 5 µM, read-out: Average inhibition %, biofilms biomass): 28.7 ± 25.2%
inhibition at 5 µM ([1]; 5 µM, read-out: Average inhibition %, planktonic cells turbidity): 13.6 ± 13.1%
inhibition at 10 µM [1, 5]: 31.9 ± 24.6%
inhibition at 10 µM [1, 6]: 40.8 ± 18.5%
inhibition at 15 µM [1, 7]: 53.1 ± 42.8%
inhibition at 15 µM [1, 8]: 47.2 ± 50%
inhibition at 25 µM [1, 9]: 92 ± 5.9%
inhibition at 25 µM [1, 10]: 97.4 ± 2.6%
Average inhibition %, biofilms viability ([1]; 5 µM): 22.4 ± 5.4%
Average inhibition %, planktonic cells viability ([1]; 5 µM): 0 ± 0%
Average inhibition %, biofilms viability ([1]; 10 µM): 16.7 ± 15%
Average inhibition %, planktonic cells viability ([1]; 10 µM): 20.3 ± 20.7%
Average inhibition %, biofilms viability ([1]; 15 µM): 48.8 ± 44.2%
Average inhibition %, planktonic cells viability ([1]; 15 µM): 36.9 ± 54.3%
Average inhibition %, biofilms viability ([1]; 25 µM): 99.5 ± 0.8%
Average inhibition %, planktonic cells viability ([1]; 25 µM): 99.7 ± 0.2%
Average inhibition %, biofilms viability ([2]; 50 µM): 27.9 ± 25.6%
Average inhibition %, planktonic cells viability ([2]; 50 µM): 28 ± 9%
Average inhibition %, biofilms viability ([2]; 100 µM): 20.3 ± 9.9%
Average inhibition %, planktonic cells viability ([2]; 100 µM): 76.1 ± 19.4%
Average inhibition %, biofilms viability ([2]; 150 µM): 17 ± 12.1%
Average inhibition %, planktonic cells viability ([2]; 150 µM): 88 ± 8.4%
Average inhibition %, biofilms viability ([2]; 200 µM): 12.2 ± 5.8%
Average inhibition %, planktonic cells viability ([2]; 200 µM): 93.5 ± 0.6%
inhibition at 50 µM [2, 11]: 14.7 ± 10.8%
inhibition at 50 µM [2, 12]: 18.6 ± 7.4%
inhibition at 100 µM ([2]; 100 µM, read-out: Average inhibition %, biofilms biomass): 29.1 ± 19.9%
inhibition at 100 µM ([2]; 100 µM, read-out: Average inhibition %, planktonic cells turbidity): 83.9 ± 2.6%
inhibition at 150 µM ([2]; 150 µM, read-out: Average inhibition %, biofilms biomass): 37.8 ± 2.9%
inhibition at 150 µM ([2]; 150 µM, read-out: Average inhibition %, planktonic cells turbidity): 85.6 ± 3.3%
inhibition at 200 µM ([2]; 200 µM, read-out: Average inhibition %, biofilms biomass): 36.9 ± 6.7%
inhibition at 200 µM ([2]; 200 µM, read-out: Average inhibition %, planktonic cells turbidity): 87.8 ± 4.2%
Average inhibition %, biofilms viability ([3]; 10 µM): 0 ± 0%
Average inhibition %, planktonic cells viability ([3]; 10 µM): 5.1 ± 0.7%
Average inhibition %, biofilms viability ([3]; 15 µM): 1.4 ± 1.2%
Average inhibition %, planktonic cells viability ([3]; 15 µM): 0 ± 0%
Average inhibition %, biofilms viability ([3]; 25 µM): 68.3 ± 27.4%
Average inhibition %, planktonic cells viability ([3]; 25 µM): 48.6 ± 48.9%
Average inhibition %, biofilms viability ([3]; 50 µM): 93.8 ± 1.3%
Average inhibition %, planktonic cells viability ([3]; 50 µM): 97.8 ± 0.3%
inhibition at 10 µM [3, 5]: 0%
inhibition at 10 µM [3, 6]: 0%
inhibition at 15 µM [3, 7]: 0%
inhibition at 15 µM [3, 8]: 0%
inhibition at 25 µM [3, 9]: 38.9 ± 34.1%
inhibition at 25 µM [3, 10]: 63.2 ± 30.2%
inhibition at 50 µM [3, 11]: 56.9 ± 19.5%
inhibition at 50 µM [3, 12]: 94.4 ± 2.3%
Average inhibition %, biofilms viability ([4]; 25 µM): 21 ± 14.6%
Average inhibition %, planktonic cells viability ([4]; 25 µM): 0.9 ± 1.6%
Average inhibition %, biofilms viability ([4]; 50 µM): 42.3 ± 5.5%
Average inhibition %, planktonic cells viability ([4]; 50 µM): 0 ± 0%
Average inhibition %, biofilms viability ([4]; 100 µM): 52.5 ± 9.2%
Average inhibition %, planktonic cells viability ([4]; 100 µM): 21.3 ± 18.5%
Average inhibition %, biofilms viability ([4]; 200 µM): 52 ± 9.4%
Average inhibition %, planktonic cells viability ([4]; 200 µM): 48.3 ± 23.5%
inhibition at 25 µM [4, 13]: 47.6 ± 0.5%
inhibition at 25 µM [4, 14]: 9.3 ± 10%
inhibition at 50 µM [4, 13]: 57.8 ± 6.5%
inhibition at 50 µM [4, 14]: 12.6 ± 10.9%
inhibition at 100 µM [4, 13]: 65.9 ± 12.5%
inhibition at 100 µM [4, 14]: 31.2 ± 10.9%
inhibition at 200 µM [4, 13]: 72.5 ± 9.8%
inhibition at 200 µM [4, 14]: 40 ± 13.2%
